Results on eleven compounds are retold here after patent publication US20180177792A1, “COMPOSITIONS AND METHODS FOR TREATING PATIENTS WITH RTK MUTANT CELLS” (IGNYTA, INC., priority 2015, published 2018).

Where two headings read alike, the source gives them in different places.

For orientation: IC50 means the concentration at which inhibition is half-maximal.

Test [1] relates to KM12-TPM3/trkA_G667C cells. Description: growth inhibition screen, KM12 mutant cells with G667C. It is filed as cell-based, human. How it is done: (§1) Each treatment condition was performed in duplicate.
(§2) In this experiment, each of the following cell lines: Ba/F3-tel/trkA, Ba/F3-tel/trkA-10nMA (G595R), KM12-DMSO, KM12-30nM101-B (G667C), KM12-100nM101-B (G667C), KM12-300nM101-B (G595R) was screened against a number of chemical compounds.

Test [2] concerns KM12-TPM3/trkA_G595R cells. Nature of the test: growth inhibition screen, KM12 mutant cells with G595R. It counts as cell-based, human. How it is done:
as §1, §2

For another test, the target named is T1, BaF3-tel/trkA_WT cells (Homo sapiens, UniProt P04629).
T1 construct: Input Ba/F3-Tel/TrkA cell line was an engineered cell line harboring a recombinant TrkA fusion gene ETV6-TrkA; fused on or other part: P41212 (Transcription factor ETV6)
T1 sequence (P04629 whole entry, change not shown, the tested form may be a part): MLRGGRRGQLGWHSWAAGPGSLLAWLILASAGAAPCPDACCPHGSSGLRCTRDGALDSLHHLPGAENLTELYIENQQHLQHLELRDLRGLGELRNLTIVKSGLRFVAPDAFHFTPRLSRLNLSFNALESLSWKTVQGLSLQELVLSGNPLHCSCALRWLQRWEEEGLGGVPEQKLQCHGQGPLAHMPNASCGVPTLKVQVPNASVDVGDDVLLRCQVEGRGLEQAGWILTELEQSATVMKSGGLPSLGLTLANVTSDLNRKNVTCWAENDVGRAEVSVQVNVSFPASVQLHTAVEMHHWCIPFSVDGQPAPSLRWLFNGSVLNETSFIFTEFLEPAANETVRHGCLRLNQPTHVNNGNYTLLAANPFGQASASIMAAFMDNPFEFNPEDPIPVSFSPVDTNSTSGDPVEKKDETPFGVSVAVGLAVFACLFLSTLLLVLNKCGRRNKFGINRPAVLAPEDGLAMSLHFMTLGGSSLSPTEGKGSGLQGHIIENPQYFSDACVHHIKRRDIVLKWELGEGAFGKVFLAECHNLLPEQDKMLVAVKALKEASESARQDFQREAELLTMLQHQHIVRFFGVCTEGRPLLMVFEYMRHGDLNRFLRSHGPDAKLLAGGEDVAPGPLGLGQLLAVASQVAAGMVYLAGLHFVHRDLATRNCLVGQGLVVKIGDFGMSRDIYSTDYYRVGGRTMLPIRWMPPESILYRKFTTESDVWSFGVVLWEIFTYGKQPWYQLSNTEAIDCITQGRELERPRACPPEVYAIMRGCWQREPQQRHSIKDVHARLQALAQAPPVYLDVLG
Description: growth inhibition, parental Ba/F3-tel/trkA cells. It is filed as cell-based, murine. How it is done:
(§3) Input Ba/F3-Tel/TrkA cell line was an engineered cell line harboring a recombinant TrkA fusion gene ETV6-TrkA. […] Cell viability was evaluated by trypan blue and counted every two days (FIG. 9).
as §1, §2

The target in test [3] is T2, BaF3-tel/trkA-10 nMA(G595R) cells (Homo sapiens, UniProt P04629, G595R, cells depend on it).
T2 construct: IC50; other: BaF3-tel/trkA-10 nMA(G595R); fused on or other part: P41212 (Transcription factor ETV6)
T2 sequence (P04629 whole entry G595R, the tested form may be a part): as the sequence (P04629 whole entry, change not shown, the tested form may be a part) above, with G595R counted along it
It is filed as cell-based, murine. The conditions noted are these: BaF3-tel/trkA_G595R. As for the experimental part:
as §3, §1, §2

In test [4] the test system is parental KM12 cells (KM12-DMSO; KM12-TPM3/trkA_WT). Nature of the test: growth inhibition (CellTiter-Glo, 3 days), parental KM12 cells cultured in DMSO. A general note: Cellular ATP, detected with luciferase, serves as a proxy for viable cell number.
A further test concerns the target T3, BaF3-tel/trkB cells (Homo sapiens, UniProt Q16620).
T3 construct: fused on or other part: P41212 (Transcription factor ETV6)
Description: growth inhibition, Ba/F3-tel/trkB cells. It counts as cell-based, murine. As to conditions: read-out: IC50, Table 9.

The next test concerns the target T4, BaF3-tel/trkC cells (Homo sapiens, UniProt Q16288).
T4 construct: fused on or other part: P41212 (Transcription factor ETV6)
Nature of the test: growth inhibition, Ba/F3-tel/trkC cells. It is filed as cell-based, murine.

Another test relates to KM12-1 nM A cells. Nature of the test: cells. As to conditions: Homo sapiens. As for the experimental part:
as §1

In another test the test system is KM12-10 nM A cells. Description: cells. The conditions noted are these: Homo sapiens. How it is done: as §1
The subject of the next test is KM12-100 nM A cells. Description: cells. As to conditions: Homo sapiens. As for the experimental part:
as §1

Test [5] relates to KM12-100 nM-B (no drug) cells. Nature of the test: cells. As to conditions: Homo sapiens. How it is done: as §1
The subject of a further test is KM12-100 nM-B cells. Description: cells. The conditions noted are these: Homo sapiens. As for the experimental part: as §1
The next test deals with KM12-3 nM A cells. Nature of the test: cells. The conditions noted are these: Homo sapiens. How it is done:
as §1

A further test concerns KM12-30 nM A cells. Nature of the test: cells. The conditions noted are these: for IC50: Homo sapiens. As for the experimental part: as §1
A further test relates to KM12-30 nM-B cells. Nature of the test: cells. As to conditions: Homo sapiens. As for the experimental part: as §1
The next test relates to KM12-300 nM-B cells. Description: cells. As to conditions: Homo sapiens. How it is done:
as §1

The test system of test [6] is BaF3-tel/trkA-10 nMA(G595R) cells. It is filed as cell-based, murine. How it is done: as §3, §1, §2
Test [7] relates to mutant cells harboring the TrkA-G595C mutation or the TrkA-G667C mutation. Description: screen for inhibition of proliferation of mutant KM12 and Ba/F3-tel/trkA cells. It is filed as cell-based. How it is done:
as §1, §2

[8] abbreviates: Homo sapiens, KM12-TPM3/trkA_G667C, Table 8, in μM, read-out: IC50.
The mark [9] stands for this setting: Homo sapiens, KM12-TPM3/trkA_G595R, Table 8, in μM, read-out: IC50.
Where [10] appears, read: Table 8, cells without unit, read-out: IC50 (the source's name).
Where [11] appears, read: Table 9, read-out: IC50 (the source's name).
Where [12] appears, read: Table 8, in μM, read-out: IC50 (the source's name).

T3 sequence (Q16620 whole entry, change not shown, the tested form may be a part): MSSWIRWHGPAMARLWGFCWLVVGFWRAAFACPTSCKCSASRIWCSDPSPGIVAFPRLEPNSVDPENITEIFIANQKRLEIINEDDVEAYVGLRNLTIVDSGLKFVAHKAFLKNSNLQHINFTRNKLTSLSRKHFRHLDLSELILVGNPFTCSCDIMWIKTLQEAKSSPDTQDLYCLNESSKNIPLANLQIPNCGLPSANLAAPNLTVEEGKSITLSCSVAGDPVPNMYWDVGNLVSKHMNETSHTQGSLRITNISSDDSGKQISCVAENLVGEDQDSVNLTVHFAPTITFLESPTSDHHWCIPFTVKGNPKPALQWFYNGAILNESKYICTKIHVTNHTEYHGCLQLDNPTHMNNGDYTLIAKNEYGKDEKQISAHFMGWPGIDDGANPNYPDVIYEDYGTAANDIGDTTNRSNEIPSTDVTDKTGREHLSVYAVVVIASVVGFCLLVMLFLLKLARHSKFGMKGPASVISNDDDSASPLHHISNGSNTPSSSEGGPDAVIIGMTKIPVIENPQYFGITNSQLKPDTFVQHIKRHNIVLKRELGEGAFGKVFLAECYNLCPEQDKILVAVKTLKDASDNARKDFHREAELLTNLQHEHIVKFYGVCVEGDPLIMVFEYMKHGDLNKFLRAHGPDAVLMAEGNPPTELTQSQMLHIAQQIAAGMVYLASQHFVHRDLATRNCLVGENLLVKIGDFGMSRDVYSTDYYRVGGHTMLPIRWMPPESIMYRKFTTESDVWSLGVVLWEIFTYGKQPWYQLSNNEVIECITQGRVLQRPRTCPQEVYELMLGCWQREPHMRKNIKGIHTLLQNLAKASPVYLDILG
T4 sequence (Q16288 whole entry, change not shown, the tested form may be a part): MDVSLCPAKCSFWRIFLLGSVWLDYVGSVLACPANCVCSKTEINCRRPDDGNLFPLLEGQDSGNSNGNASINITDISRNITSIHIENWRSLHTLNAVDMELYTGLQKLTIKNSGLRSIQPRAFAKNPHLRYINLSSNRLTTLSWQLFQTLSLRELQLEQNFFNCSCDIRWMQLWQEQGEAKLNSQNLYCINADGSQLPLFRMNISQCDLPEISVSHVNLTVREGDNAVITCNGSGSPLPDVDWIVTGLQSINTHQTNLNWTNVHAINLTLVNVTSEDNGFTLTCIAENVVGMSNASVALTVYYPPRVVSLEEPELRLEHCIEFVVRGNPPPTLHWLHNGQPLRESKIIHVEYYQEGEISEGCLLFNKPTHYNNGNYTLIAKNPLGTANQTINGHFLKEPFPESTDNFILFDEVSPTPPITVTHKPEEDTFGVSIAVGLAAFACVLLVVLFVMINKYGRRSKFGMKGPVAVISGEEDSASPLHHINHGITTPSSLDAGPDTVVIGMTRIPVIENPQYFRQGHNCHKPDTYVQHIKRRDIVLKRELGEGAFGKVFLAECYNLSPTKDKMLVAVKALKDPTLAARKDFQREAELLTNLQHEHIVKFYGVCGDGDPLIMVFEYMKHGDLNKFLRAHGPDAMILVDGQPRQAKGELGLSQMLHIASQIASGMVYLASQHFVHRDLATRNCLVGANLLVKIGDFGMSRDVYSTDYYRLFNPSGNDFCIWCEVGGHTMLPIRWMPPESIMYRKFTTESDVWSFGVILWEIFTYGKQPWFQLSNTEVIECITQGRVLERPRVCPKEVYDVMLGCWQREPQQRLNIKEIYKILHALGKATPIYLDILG

As for `C[C@@H](Oc1cc(-c2cnn(C3CCNCC3)c2)cnc1N)c1c(Cl)ccc(F)c1Cl` [crizotinib, (R)-3-[1-(2,6-Dichloro-3-fluorophenyl)ethoxy]-5-[1-(piperidin-4-yl)-1H-pyrazol-4-yl]pyridin-2-amine], the IC50 in test [1] (setting [8]) is above 1 µM; in [2] (setting [9]) it was above 1 µM; in test [4] (Homo sapiens, KM12), 76.6 nM. Moreover, the results for the GI50 (on BaF3-tel/trkA_WT cells (setting [10]); in test [3] (setting [10])) were 0.179 µM and 0.433 µM, respectively.
Regarding `CC(C)Oc1cc(Nc2nc(N[C@@H](C)c3ccc(F)cn3)ncc2Cl)n[nH]1` [AZ-23, 5-chloro-2-N-[(1S)-1-(5-fluoropyridin-2-yl)ethyl]-4-N-(3-propan-2-yloxy-1H-pyrazol-5-yl)pyrimidine-2,4-diamine], the GI50 worked out at 3.3 nM on BaF3-tel/trkB cells and 2.2 nM at BaF3-tel/trkC cells (read-out: IC50, Table 9).
For `CN1CCN(c2ccc(C(=O)Nc3n[nH]c4ccc(Cc5cc(F)cc(F)c5)cc34)c(NC3CCOCC3)c2)CC1` [entrectinib, N-[5-(3,5-difluorobenzyl)-1H-indazol-3-yl]-4-(4-methyl-piperazin-1-yl)-2-(tetrahydro-pyran-4-ylamino)-benzamide], the IC50 in the test with KM12-1 nM A cells (KM12) is 4.19 nM; with KM12-1 nM A cells (KM12, 72 h), 1.57 nM; in the test on KM12-10 nM A cells (KM12), 4.65 nM; with KM12-10 nM A cells (KM12, 72 h), 1.71 nM; in the test with KM12-100 nM A cells it was 6.62 nM; in test [5] it was 85.4 nM. Besides, the IC50 in the test on KM12-100 nM-B cells was 70.4 nM; in the test on KM12-3 nM A cells (KM12), 4.36 nM; in the test with KM12-3 nM A cells (KM12, 72 h) it was 1.64 nM; with KM12-30 nM A cells (KM12) it was 6.47 nM; in the test with KM12-30 nM A cells (KM12, 72 h), 3.41 nM; in the test on KM12-30 nM-B cells, 93.8 nM. The 50% inhibitory concentration (IC50) in the test with KM12-300 nM-B cells is 209 nM; in test [1] (Homo sapiens, KM12), 0.367 µM; in [4] (Homo sapiens, KM12, 72 h, KM12-DMSO-A, 3-day growth inhibition, Table 3) it was 1.26 nM; in test [4] (Homo sapiens, KM12, 672 h, KM12-DMSO, Table 4, after about 4 weeks of increased entrectinib in Set A), 3.95 nM; in [4] (Homo sapiens, KM12, KM12-DMSO-B, Table 5) it was 1.14 nM; in test [4] (Homo sapiens, KM12, KM12-TPM3/trkA_WT, Table 8, cells without unit), 3.4 nM. Moreover, the “increase of IC50 value” with KM12-30 nM A cells (KM12-30 nM-A treated cells versus cells cultured in DMSO and 1-10 nM entrectinib) is given as around 2 fold. Besides, in [6], the “IC50 higher than that of the control parental line” value is reported as above 100 fold. Also, the GI50 at BaF3-tel/trkB cells was found to be 8.7 nM; at BaF3-tel/trkC cells (setting [11]), 5.5 nM. In addition, the “inhibitory activity against mutant cells” value in test [7] is listed as “significant inhibitory activity”.
As to `O=C(Nc1cnn2ccc(N3CCC[C@@H]3c3cc(F)ccc3F)nc12)N1CC[C@H](O)C1` [LOXO-101, (3S)-N-[5-[(2R)-2-(2,5-difluorophenyl)-1-pyrrolidinyl]pyrazolo[1,5-a]pyrimidin-3-yl]-3-hydroxy-1-pyrrolidinecarboxamide], the IC50 in test [1] (setting [8]) is above 1 µM; in [2] (setting [9]), above 1 µM; in test [4] (Homo sapiens, KM12), 27 nM.
For `CN[C@@H]1C[C@H]2O[C@@](C)([C@@H]1OC)n1c3ccccc3c3c4c(c5c6ccccc6n2c5c31)C(=O)NC4` [Staurosporine, 9,13-Epoxy-1H,9H-diindolo[1,2,3-gh:3′,2′,1′-lm]pyrrolo[3,4-j][1,7]benzodiazonin-1-one, 2,3,10,11,12,13-hexahydro-10-methoxy-9-methyl-11-(methylamino)-, (9S,10R,11R,13R)-], on BaF3-tel/trkB cells, the GI50 was 4.2 nM.
In the case of `C[C@H]1Oc2cc(cnc2N)-c2c(nn(C)c2C#N)CN(C)C(=O)c2ccc(F)cc21` [PF06463922, (10R)-7-amino-12-fluoro-10,15,16,17-tetrahydro-2,10,16-trimethyl-15-oxo-2H-4,8-Methenopyrazolo[4,3-h][2,5,11]benzoxadiazacyclotetradecine-3-carbonitrile], the IC50 is above 1 µM in test [1] (Homo sapiens, KM12); above 1 µM in test [2] (Homo sapiens, KM12); 206 nM in [4] (Homo sapiens, KM12). Also, the GI50 is 0.386 µM at BaF3-tel/trkA_WT cells (read-out: IC50, Table 8, cells without unit) and above 1 µM in test [3] (read-out: IC50, Table 8, in μM).
On to `CNC(=O)c1cc(Oc2ccc(NC(=O)Nc3cc(C(C)(C)C)nn3-c3ccc4ncccc4c3)c(F)c2)ccn1` [rebastinib, 4-[4-[(5-tert-butyl-2-quinolin-6-ylpyrazol-3-yl)carbamoylamino]-3-fluorophenoxy]-N-methylpyridine-2-carboxamide], for which the “inhibitory activity against mutant cells” value in test [7] is “significant inhibitory activity”.
In the case of `Cc1cc(Nc2ncc(Cl)c(Nc3ccccc3S(=O)(=O)C(C)C)n2)c(OC(C)C)cc1C1CCNCC1` [ceritinib, 5-chloro-2-N-(5-methyl-4-piperidin-4-yl-2-propan-2-yloxyphenyl)-4-N-(2-propan-2-ylsulfonylphenyl)pyrimidine-2,4-diamine], the IC50 was above 1 µM in test [1] (setting [8]); above 1 µM in [2] (setting [9]); 269 nM in test [4] (Homo sapiens, KM12). Also, the GI50 (at BaF3-tel/trkA_WT cells (setting [12]); in test [3] (setting [12])) was above 1 µM throughout.
For the compound `COC(=O)[C@@]1(O)C[C@H]2O[C@]1(C)n1c3ccccc3c3c4c(c5c6ccccc6n2c5c31)C(=O)NC4` [Compound K252a, 9,12-Epoxy-1H-diindolo[1,2,3-fg:3′,2′,1′-kl]pyrrolo[3,4-i][1,6]benzodiazocine-10-carboxylic acid, 2,3,9,10,11,12-hexahydro-10-hydroxy-9-methyl-1-oxo-, methyl ester, (9S,10R,12R)-], the GI50 at BaF3-tel/trkB cells came to 45.3 nM; at BaF3-tel/trkC cells (setting [11]), 14.3 nM.
Turning to `COC[C@@H](C)Nc1cc(N2CCN(C)CC2)ccc1C(=O)Nc1n[nH]c2ccc(S(=O)(=O)c3cc(F)cc(F)c3)cc12` [Compound 2, N-[5-(3,5-difluoro-benzenesulfonyl)-1H-indazol-3-yl]-2-((R)-2-methoxy-1-methyl-ethylamino)-4-(4-methyl-piperazin-1-yl) benzamide], the IC50 in test [1] (KM12-TPM3/trkA_G667C, Table 8, cells without unit, read-out: IC50) came out at 0.466 µM; in [2] (KM12-TPM3/trkA_G595R, Table 8, cells without unit, read-out: IC50) it was 0.424 µM; in test [4] (KM12-TPM3/trkA_WT, Table 8, cells without unit) it was 6.1 nM. The GI50 was found to be 0.0023 µM on BaF3-tel/trkA_WT cells (setting [10]) and 0.846 µM in test [3] (setting [10]). Moreover, the “inhibitory activity against mutant cells” value in test [7] is “significant inhibitory activity”.
On to `COc1cc(N2CCC(N3CCN(C)CC3)CC2)ccc1Nc1ncc(Cl)c(Nc2ccccc2S(=O)(=O)C(C)C)n1` [NVP-TAE684, 5-chloro-N2-[2-methoxy-4-[4-(4-methyl-1-piperazinyl)-1-piperidinyl]phenyl]-N4-[2-[(1-methylethyl)sulfonyl]phenyl]-2,4-Pyrimidinediamine], for which the “inhibitory activity against mutant cells” value in test [7] is given as “significant inhibitory activity”.
